Where a SMILES comes first, the peptide text is derived from it. [ ]: non-standard residue; d: D form. The star is where a group is joined. X1 = CC(C)CCC[C@@H](C)[C@H]1CC[C@H]2[C@@H]3CC[C@H]4C[C@@H](O*)CC[C@]4(C)[C@H]3CC[C@]12C; PEG4 = NCCOCCOCCOCCOCCC(=O)O; PEG3 = NCCOCCOCCOCCC(=O)O
Columns and labels:
[1] = system: NK1R-positive neurons in lamina I of the dorsal horn; test: Cell-attached patch clamp recordings in rat spinal cord slices; type: cell-based
Procedure: To evaluate whether NK1R endosomal signaling mediates this sustained activation, cell-attached patch clamp recordings were made from NKiR-positive neurons in lamina I of the dorsal horn in slices of rat spinal cord. […] These findings support a role for NK1R endocytosis in persistent neuronal excitation.
Parasagittal slices (340-400 μm) were prepared using a vibratome from the lumbar region of the rat spinal cord in ice-cold sucrose-based artificial CSF (sACSF) (mM: 100 sucrose, 63 NaCl, 2.5 KCl, 1.2 NaH2PO4, 1.2 MgCl2, 25 glucose, 25 NaHCO3; 95% O2/5% CO2). Slices were transferred to N-Methyl-D-Glucamine (NMDG)-based recovery ACSF (rACSF) (mM: 93 NMDG, 93 HCl, 2.5 KCl, 1.2 NaH2PO4, 30 NaHCO3, 20 HEPES, 25 glucose, 5 Na ascorbate, 2 thiourea, 3 Na pyruvate, 10 MgSO4, 0.5 CaCl2; 95% O2/5% CO2, 15 min, 34° C.). Slices were transferred to normal ACSF (mM: 125 NaCl, 2.5 KCl, 1.25 NaH2PO4, 1.2 MgCl2, 2.5 CaCl2, 25 glucose, 11 NaHCO3; 95% O2/5% CO2) containing 10 μM MK-801 (45 min, 34° C.), then maintained at RT.
Slices of rat spinal cord were transferred to a recording chamber and superfused with normal ACSF (2 ml·min^−1, 36° C.). […] PS2 was not soluble in the low concentrations of DMSO required for electrophysiology. Large, NKiR-positive, presumed nociceptive lamina I neurons were visually identified as described (Imlach, W. L., et al., Molecular Pharmacology, 2015, 88, 460-428). Spontaneous currents were recorded in cell-attached configuration (Multiclamp 700B, Molecular Devices, Sunnyvale, Calif.), sampled at 10 kHz, high pass filtered at 1 Hz, and capacitatively coupled action potential events were analyzed using Axograph X, V 1.4.4 (Axograph). Patch electrodes (resistance 2.5-3.5 MQ) contained KMES-based internal solution (mM: 105 KMES, 20 NaCl, 5 HEPES, 10 BAPTA, 1.5 MgCl2, 4 MgATP, 0.4 NaGTP, 0.1% biocytin; 285-295 mosmol·l^−1) to facilitate subsequent recordings of action potential properties in whole-cell configuration. Recordings were made in the presence of CNQX (6-cyano-7-nitroquinoxaline-2,3-dione) (10 μM; AMPA/kainate receptor antagonist), picrotoxin (100 μM; GABAA receptor antagonist), strychnine (0.5 μM; glycine and acetylcholine receptor antagonist), and AP5 ((2R)-amino-5-phosphonovaleric acid; (2R)-amino-5-phosphonopentanoate) (100 μM; NMDA receptor antagonist) to minimize presynaptic influences on action potential properties. […] Recordings were sampled at 10 kHz and filtered with a high pass filter at 1 Hz and firing rate was measured in two-minute interval bins. At the end of each cell-attached recording, whole-cell recordings were made in current-clamp mode to confirm retention of normal action potential firing. Data were only included in the analysis if cells had action potential amplitudes that were ≥50 mV above threshold to ensure viable neurons were included. Cells were filled with biocytin and sections were processed to confirm NK1R expression by immunofluorescence. […] The firing time was determined as the duration of the response to last action potential. To assess synaptic transmission, whole-cell configuration recordings were made under control conditions or after exposure to Dy4 or Dy4 inact; a bipolar stimulating electrode was placed at the dorsal root entry zone, and electrically-evoked excitatory postsynaptic currents recorded as described (Imlach, W. L., et al., Molecular Pharmacology, 2015, 88, 460-428).

[2] = system: motor coordination of mice; test: Rotarod; type: in vivo, mouse; conditions: i.t. 50 μM
Procedure: Mice were acclimatized by 3 trials on 2 successive days before experiments. Mice were trained to remain on the rotarod for three consecutive periods. On the experimental day, three baseline time trials (cut-off 120 s) were recorded. […] After 30 min, mice were placed on the rotarod with accelerating velocity for up to 120 s. Times were recorded in 3 successive trials, and latency time to fall was determined at 30, 90 and 120 min

ERK = ERK phosphorylation in rat lamina I dorsal horn neurons in vivo; conditions: i.t. 30 min before intraplantar capsaicin
Procedure: Painful peripheral stimuli activate ERK in NKiR-expressing spinal neurons, which coincides with receptor endocytosis and contributes to hyperalgesia. Intraplantar capsaicin stimulated ERK phosphorylation in lamina I dorsal horn neurons (FIG. 5B). […] Thus, capsaicin stimulates clathrin- and dynamin-dependent NK1R endocytosis and ERK activation in spinal neurons in vivo.
After 10 min, rats were transcardially perfused with PBS and then 4% PFA. The spinal cord was removed, immersion fixed in PFA (2 h, 4° C.), and cryoprotected (30% sucrose, PBS, 24 h, 4° C.). The spinal cord (T12 to L4) was embedded in OCT and […] serial coronal sections were cut into 48-well plates containing PBS. Free-floating sections were blocked in PBS containing 10% normal horse serum (1 h, RT). […]
Tissues and cells were observed using a Leica SP8 confocal microscope using HCX PL APO 40× (NA 1.30) and HCX PL APO 63× (NA 1.40) oil objectives. […] NK1R endocytosis and pERK expression were quantified using ImageJ. To quantify NK1R internalization in lamina I neurons, the border of the cytoplasm of the neuronal soma was defined by NeuN fluorescence, and NK1R fluorescence within 5 pixels (0.5 μm) of the border was defined as plasma membrane-associated receptor. The ratio of plasma membrane to cytosolic NK1R-IR fluorescence was determined in >6 lamina I neurons per condition. […]

[3] = 1 μM for 60 min, washed, 60 min antagonist-free, then SP
[4] = 30 μM, preincubated 10 min, SP 1 μM, 2 min

| Compound | effect on initial SP-evoked excitation [1, 3] | effect on sustained action potential discharge after SP removal [1, 3] | SP-evoked firing rate, response at 2 min ([1]; 1 μM for 60 min, washed, 60 min antagonist-free, then SP, P>0.05) | effect on rotarod latency [2] | effect on capsaicin-evoked activation of spinal ERK (ERK) | effect on initial SP-evoked excitation [1, 4] | effect on sustained action potential discharge after SP removal [1, 4] | effect on glutaminergic primary afferent synaptic transmission and synaptic rundown ([1]; slices of rat spinal cord) |
| --- | --- | --- | --- | --- | --- | --- | --- | --- |
| CC(=O)N[C@@H](CC(=O)O[C@H]1CC[C@@]2(C)[C@@H](CC[C@@H]3[C@@H]2CC[C@]2(C)[C@@H]([C@H](C)CCCC(C)C)CC[C@@H]32)C1)C(=O)NCCOCCOCCOCCOCCC(=O)NCCOCCOCCOCCC(=O)NCCOCCOCCOCCOCCC(=O)N[C@H](CCCNC(=N)N)C(=O)N1CCC[C@H]1C(=O)N[C@@H](CCCCN)C(=O)N1CCC[C@H]1C(=O)N[C@@H](CCC(N)=O)C(=O)N[C@@H](CCC(N)=O)C(=O)N[C@H](Cc1c[nH]c2ccccc12)C(=O)N[C@@H](Cc1ccccc1)C(=O)N[C@H](Cc1c[nH]c2ccccc12)C(=O)N[C@@H](CC(C)C)C(=O)N[C@@H](CC(C)C)C(N)=O [Compound 1] (Ac-D(X1)[PEG4][PEG3][PEG4][dR]PKPQQ[dW]F[dW]LL-NH2) | did not suppress the initial excitation | prevented the action potential discharge | 196.6±81.6 events. 2 min^−1 | – | – | – | – | – |
| O=C(N/N=C/c1cc(O)c(O)cc1O)c1cc2ccccc2cc1O [Dy4] | – | – | – | did not affect | prevented capsaicin-evoked activation of spinal ERK | did not affect the initial excitation | prevented the sustained action potential discharge | did not affect |
| O=C1NC(=NS(=O)(=O)c2cccc3ccccc23)S/C1=C\c1ccc(Br)cc1 [PS2] | – | – | – | did not affect | prevented capsaicin-evoked activation of spinal ERK | – | – | – |

From patent publication US11324832B2, “Tripartite modulators of endosomal G protein-coupled receptors” (Endosome Therapeutics, Inc., priority 2015, dated 2022)
